{"source": "patent US11285156B2", "about": "“Substituted piperazines as KRAS G12C inhibitors” (Amgen Inc., priority 2018, dated 2022)", "key": {"[1]": {"biological_target": "GDP-bound KRAS protein (aa 1-169), containing both G12C and C118A amino acid substitutions (Homo sapiens (Human), UniProt P01116, C118A/G12C)", "sequence (P01116 other isoform, or with tags, fused parts or gaps G12C/C118A)": "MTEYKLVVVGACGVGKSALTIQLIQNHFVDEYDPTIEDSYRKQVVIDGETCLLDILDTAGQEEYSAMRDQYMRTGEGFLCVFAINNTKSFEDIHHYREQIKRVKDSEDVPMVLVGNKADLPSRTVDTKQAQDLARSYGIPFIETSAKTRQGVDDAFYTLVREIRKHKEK", "assay": "Coupled nucleotide exchange assay (SOS-mediated nucleotide exchange, AlphaScreen)", "type": "biochemical", "settings": "read-out: Coupled exchange IC50 (5 min; μM); 5 min compound pre-incubation"}, "[2]": {"test_system": "Phosphorylation of ERK1/2 in MIA PaCa-2 cells", "assay": "Phospho-ERK1/2 MSD assay in MIA PaCa-2 cells", "type": "cell-based", "settings": "read-out: p-ERK IC50 (2 h, MiaPaCa-2; μM), 2 h compound treatment, MIA PaCa-2 cells, EGF stimulated", "in_short": "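Phospho-ERK1/2 measured by MSD electrochemiluminescence kit in RIPA lysates of MIA PaCa-2 cells. Cells were treated with compound titrations for 2 or 4 h at 37 °C, 5% CO2, followed by a 10 min pulse of 10 ng/mL EGF.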"}, "[3]": {"test_system": "Phosphorylation of ERK1/2 in A549 cells", "assay": "Phospho-ERK1/2 MSD assay in A549 cells", "type": "cell-based", "settings": "read-out: p-ERK IC50 (2 h, A549; μM), 2 h compound treatment, A549 cells, EGF stimulated", "in_short": "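Dose-response treatment lasted 2 or 4 h in RPMI 1640/10% FBS at 37 °C. EGF-stimulated (10 ng/mL, 10 min) ERK1/2 phosphorylation was then quantified in cell lysates with a Meso Scale Discovery phospho-ERK1/2 assay.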"}}, "note": "Like-named read-outs stand apart in the source and are kept apart here.", "data": [{"smiles": "C=CC(=O)N1C[C@H](C)N(c2nc(=O)n(-c3c(C)ccnc3C(C)C)c3nc(-c4c(F)cccc4Cl)c(F)cc23)C[C@H]1C", "note": "(atropisomer, axis not shown; (M)) [Example 94-12, (M)-7-(2-Chloro-6-fluoro-phenyl)-4-[(25,5R)-2,5-dimethyl-4-prop-2-enoyl-piperazin-1-yl]-6-fluoro-1-(2-isopropyl-4-methyl-3-pyridyl)pyrido [2,3-d]pyrimidin-2-one]", "values": [{"measurement": "IC50", "setting": "[1]", "value": 0.184, "unit": "µM"}, {"measurement": "IC50", "setting": "[2]; Homo sapiens, MIA PaCa-2, 2 h", "value": 0.128, "unit": "µM"}, {"measurement": "IC50", "setting": "[3]; Homo sapiens, A549, 2 h", "value": "> 7.5", "unit": "µM"}]}, {"smiles": "C=CC(=O)N1C[C@H](C)N(c2nc(=O)n(-c3c(C)ccnc3C(C)C)c3nc(-c4c(F)cccc4C(N)=O)c(F)cc23)C[C@H]1C", "note": "(atropisomer, axis not shown; (M)) [Example 94-19, (M)-2-[4-[(2S,5R)-2,5-Dimethyl-4-prop-2-enoyl-piperazin-1-yl]-6-fluoro-1-(2-isopropyl-4-methyl-3-pyridyl)-2-oxo-pyrido[2,3-d]pyrimidin-7-yl]-3-fluoro-benzamide]", "values": [{"measurement": "IC50", "setting": "[1]", "value": 0.067, "unit": "µM"}, {"measurement": "IC50", "setting": "[2]; Homo sapiens, MIA PaCa-2, 2 h", "value": 0.518, "unit": "µM"}, {"measurement": "IC50", "setting": "[3]; Homo sapiens, A549, 2 h", "value": "> 7.5", "unit": "µM"}]}, {"smiles": "C=CC(=O)N1C[C@H](C)N(c2nc(=O)n(-c3c(C)ccnc3C(C)C)c3nc(C4CCCCC4)c(Cl)cc23)C[C@H]1C", "note": "(atropisomer, axis not shown; (M)) [Example 95-1, (M)-6-Chloro-7-cyclohexyl-4-[(2S,5R)-2,5-dimethyl-4-prop-2-enoyl-piperazin-1-yl]-1-(2-isopropyl-4-methyl-3-pyridyl)pyrido[2,3-d]pyrimidin-2-one]", "values": [{"measurement": "IC50", "setting": "[1]", "value": 0.053, "unit": "µM"}, {"measurement": "IC50", "setting": "[2]", "value": 0.318, "unit": "µM"}, {"measurement": "IC50", "setting": "[3]", "value": "> 7.5", "unit": "µM"}]}, {"smiles": "C=CC(=O)N1C[C@H](C)N(c2nc(=O)n(-c3c(C)ccnc3C(C)C)c3nc(C4CCC4)c(Cl)cc23)C[C@H]1C", "note": "(atropisomer, axis not shown; (M)) [Example 95-5, (M)-6-chloro-7-cyclobutyl-4-[(2S,5R)-2,5-dimethyl-4-prop-2-enoyl-piperazin-1-yl]-1-(2-isopropyl-4-methyl-3-pyridyl)pyrido [2,3-d]pyrimidin-2-one]", "values": [{"measurement": "IC50", "setting": "[1]", "value": 0.304, "unit": "µM"}, {"measurement": "IC50", "setting": "[2]; Homo sapiens, MIA PaCa-2, 2 h", "value": 0.611, "unit": "µM"}, {"measurement": "IC50", "setting": "[3]; Homo sapiens, A549, 2 h", "value": "> 7.5", "unit": "µM"}]}, {"smiles": "C=CC(=O)N1C[C@H](C)N(c2nc(=O)n(-c3c(C)ccnc3C(C)C)c3nc(-c4cc(OC(F)(F)F)ccc4F)c(Cl)cc23)C[C@H]1C", "note": "(atropisomer, axis not shown; (M)) [Example 124-12, (M)-6-Chloro-4-[(2S,5R)-2,5-dimethyl-4-prop-2-enoyl-piperazin-1-yl]-7-[2-fluoro-5-(trifluoromethoxy)phenyl]-1-(2-isopropyl-4-methyl-3-pyridyl)pyrido[2,3-d]pyrimidin-2-one]", "values": [{"measurement": "IC50", "setting": "[1]", "value": 0.313, "unit": "µM"}, {"measurement": "IC50", "setting": "[2]; Homo sapiens, MIA PaCa-2, 2 h", "value": 0.231, "unit": "µM"}, {"measurement": "IC50", "setting": "[3]; Homo sapiens, A549, 2 h", "value": "> 7.5", "unit": "µM"}]}, {"smiles": "C=CC(=O)N1C[C@H](C)N(c2nc(=O)n(-c3c(C)ccnc3C(C)C)c3nc(-c4cc(F)c(F)cc4O)c(Cl)cc23)C[C@H]1C", "note": "(atropisomer, axis not shown; (M)) [Example 124-13, (M)-6-Chloro-7-(4,5-difluoro-2-hydroxy-phenyl)-4-[(2S,5R)-2,5-dimethyl-4-prop-2-enoyl-piperazin-1-yl]-1-(2-isopropyl-4-methyl-3-pyridyl)pyrido[2,3-d]pyrimidin-2-one]", "values": [{"measurement": "IC50", "setting": "[1]", "value": 0.068, "unit": "µM"}, {"measurement": "IC50", "setting": "[2]; Homo sapiens, MIA PaCa-2, 2 h", "value": 0.094, "unit": "µM"}, {"measurement": "IC50", "setting": "[3]; Homo sapiens, A549, 2 h", "value": "> 7.5", "unit": "µM"}]}, {"smiles": "C=CC(=O)N1C[C@H](C)N(c2nc(=O)n(-c3c(C)ccnc3C(C)C)c3nc(-c4c(F)cccc4NC(C)=O)c(Cl)cc23)C[C@H]1C", "note": "(atropisomer, axis not shown; (M)) [Example 129-1, (M)-N-[2-[6-Chloro-4-[(2S,5R)-2,5-dimethyl-4-prop-2-enoyl-piperazin-1-yl]-1-(2-isopropyl-4-methyl-3-pyridyl)-2-oxo-pyrido[2,3-d]pyrimidin-7-yl]-3-fluoro-phenyl]acetamide]", "values": [{"measurement": "IC50", "setting": "[1]", "value": 0.054, "unit": "µM"}, {"measurement": "IC50", "setting": "[2]", "value": 0.124, "unit": "µM"}, {"measurement": "IC50", "setting": "[3]", "value": "> 7.5", "unit": "µM"}]}, {"smiles": "C=CC(=O)N1C[C@H](C)N(c2nc(=O)n(-c3c(C)ccnc3C(C)C)c3nc(-c4c(F)cccc4NC(=O)C(F)(F)F)c(Cl)cc23)C[C@H]1C", "note": "(atropisomer, axis not shown; (M)) [Example 129-2, (M)-N-[2-[6-Chloro-4-[(2S,5R)-2,5-dimethyl-4-prop-2-enoyl-piperazin-1-yl]-1-(2-isopropyl-4-methyl-3-pyridyl)-2-oxo-pyrido[2,3-d]pyrimidin-7-yl]-3-fluoro-phenyl]-2,2,2-trifluoro-acetamide]", "values": [{"measurement": "IC50", "setting": "[1]", "value": 0.065, "unit": "µM"}, {"measurement": "IC50", "setting": "[2]; Homo sapiens, MIA PaCa-2, 2 h", "value": 0.027, "unit": "µM"}, {"measurement": "IC50", "setting": "[3]; Homo sapiens, A549, 2 h", "value": "> 7.5", "unit": "µM"}]}, {"smiles": "C=CC(=O)N1C[C@H](C)N(c2nc(=O)n(-c3c(C)ccnc3C(C)C)c3nc(-c4c(F)cccc4NC(=O)CC)c(Cl)cc23)C[C@H]1C", "note": "(atropisomer, axis not shown; (M)) [Example 129-4, (M)-N-[2-[6-Chloro-4-[(2S,5R)-2,5-dimethyl-4-prop-2-enoyl-piperazin-1-yl]-1-(2-isopropyl-4-methyl-3-pyridyl)-2-oxo-pyrido[2,3-d]pyrimidin-7-yl]-3-fluoro-phenyl]propanamide]", "values": [{"measurement": "IC50", "setting": "[1]", "value": 0.053, "unit": "µM"}, {"measurement": "IC50", "setting": "[2]; Homo sapiens, MIA PaCa-2, 2 h", "value": 0.058, "unit": "µM"}, {"measurement": "IC50", "setting": "[3]; Homo sapiens, A549, 2 h", "value": "> 7.5", "unit": "µM"}]}, {"smiles": "C=CC(=O)N1C[C@H](C)N(c2nc(=O)n(-c3c(C)ccnc3C(C)C)c3nc(-c4ccccc4NC(=O)C(F)(F)F)c(Cl)cc23)C[C@H]1C", "note": "(atropisomer, axis not shown; (M)) [Example 129-5]", "values": [{"measurement": "IC50", "setting": "[1]", "value": 0.19, "unit": "µM"}, {"measurement": "IC50", "setting": "[2]; Homo sapiens, MIA PaCa-2, 2 h", "value": 0.087, "unit": "µM"}, {"measurement": "IC50", "setting": "[3]; Homo sapiens, A549, 2 h", "value": "> 7.5", "unit": "µM"}]}, {"smiles": "C=CC(=O)N1C[C@H](C)N(c2nc(=O)n(-c3c(C)ccnc3C(C)C)c3nc(-c4ccccc4NC(=O)C4CC4)c(Cl)cc23)C[C@H]1C", "note": "(atropisomer, axis not shown; (M)) [Example 129-6, (M)-N-[2-[6-Chloro-4-[(2S,5R)-2,5-dimethyl-4-prop-2-enoyl-piperazin-1-yl]-1-(2-isopropyl-4-methyl-3-pyridyl)-2-oxo-pyrido[2,3-d]pyrimidin-7-yl]phenyl]cyclopropanecarboxamide]", "values": [{"measurement": "IC50", "setting": "[1]", "value": 0.06, "unit": "µM"}, {"measurement": "IC50", "setting": "[2]; Homo sapiens, MIA PaCa-2, 2 h", "value": 0.058, "unit": "µM"}, {"measurement": "IC50", "setting": "[3]; Homo sapiens, A549, 2 h", "value": "> 7.5", "unit": "µM"}]}, {"smiles": "C=CC(=O)N1C[C@H](C)N(c2nc(=O)n(-c3c(C)ccnc3C(C)C)c3nc(-c4ccccc4NC(=O)OC)c(Cl)cc23)C[C@H]1C", "note": "(atropisomer, axis not shown; (M)) [Example 129-7, (M)-Methyl-N-[2-[6-chloro-4-[(2S,5R)-2,5-dimethyl-4-prop-2-enoyl-piperazin-1-yl]-1-(2-isopropyl-4-methyl-3-pyridyl)-2-oxo-pyrido[2,3-d]pyrimidin-7-yl]phenyl]carbamate]", "values": [{"measurement": "IC50", "setting": "[1]", "value": 0.064, "unit": "µM"}, {"measurement": "IC50", "setting": "[2]; Homo sapiens, MIA PaCa-2, 2 h", "value": 0.025, "unit": "µM"}, {"measurement": "IC50", "setting": "[3]; Homo sapiens, A549, 2 h", "value": "> 7.5", "unit": "µM"}]}, {"smiles": "C=CC(=O)N1C[C@H](C)N(c2nc(=O)n(-c3c(C)ccnc3C(C)C)c3nc(-c4c(F)cccc4NC(=O)OC)c(Cl)cc23)C[C@H]1C", "note": "(atropisomer, axis not shown; (M)) [Example 129-8, (M)-Methyl N-[2-[6-chloro-4-[(2S,5R)-2,5-dimethyl-4-prop-2-enoyl-piperazin-1-yl]-1-(2-isopropyl-4-methyl-3-pyridyl)-2-oxo-pyrido[2,3-d]pyrimidin-7-yl]-3-fluoro-phenyl]carbamate]", "values": [{"measurement": "IC50", "setting": "[1]", "value": 0.056, "unit": "µM"}, {"measurement": "IC50", "setting": "[2]; Homo sapiens, MIA PaCa-2, 2 h", "value": 0.023, "unit": "µM"}, {"measurement": "IC50", "setting": "[3]; Homo sapiens, A549, 2 h", "value": "> 7.5", "unit": "µM"}]}, {"smiles": "C=CC(=O)N1C[C@H](C)N(c2nc(=O)n(-c3c(C)ccnc3C(C)C)c3nc(-c4c(F)cccc4NC(=O)C4CC4)c(Cl)cc23)C[C@H]1C", "note": "(atropisomer, axis not shown; (M)) [Example 129-9, (M)-N-[2-[6-Chloro-4-[(2S,5R)-2,5-dimethyl-4-prop-2-enoyl-piperazin-1-yl]-1-(2-isopropyl-4-methyl-3-pyridyl)-2-oxo-pyrido[2,3-d]pyrimidin-7-yl]-3-fluoro-phenyl]cyclopropanecarboxamide]", "values": [{"measurement": "IC50", "setting": "[1]", "value": 0.008, "unit": "µM"}, {"measurement": "IC50", "setting": "[2]; Homo sapiens, MIA PaCa-2, 2 h", "value": 0.048, "unit": "µM"}, {"measurement": "IC50", "setting": "[3]; Homo sapiens, A549, 2 h", "value": "> 7.5", "unit": "µM"}]}]}
